Test results from paper PMC9120017, “Inhibition mechanism of the chloride channel TMEM16A by the pore blocker 1PBC” (Nature Communications, 2022).
Read-outs that look alike come from different tables or passages of the source.

Target: T1, mouse TMEM16A mutant G510P (Mus musculus, UniProt Q8BHY3, G510P)
T1 construct: expressed in transfected cells; host or cells: HEK293T
T1 sequence (Q8BHY3 1-960 G510P): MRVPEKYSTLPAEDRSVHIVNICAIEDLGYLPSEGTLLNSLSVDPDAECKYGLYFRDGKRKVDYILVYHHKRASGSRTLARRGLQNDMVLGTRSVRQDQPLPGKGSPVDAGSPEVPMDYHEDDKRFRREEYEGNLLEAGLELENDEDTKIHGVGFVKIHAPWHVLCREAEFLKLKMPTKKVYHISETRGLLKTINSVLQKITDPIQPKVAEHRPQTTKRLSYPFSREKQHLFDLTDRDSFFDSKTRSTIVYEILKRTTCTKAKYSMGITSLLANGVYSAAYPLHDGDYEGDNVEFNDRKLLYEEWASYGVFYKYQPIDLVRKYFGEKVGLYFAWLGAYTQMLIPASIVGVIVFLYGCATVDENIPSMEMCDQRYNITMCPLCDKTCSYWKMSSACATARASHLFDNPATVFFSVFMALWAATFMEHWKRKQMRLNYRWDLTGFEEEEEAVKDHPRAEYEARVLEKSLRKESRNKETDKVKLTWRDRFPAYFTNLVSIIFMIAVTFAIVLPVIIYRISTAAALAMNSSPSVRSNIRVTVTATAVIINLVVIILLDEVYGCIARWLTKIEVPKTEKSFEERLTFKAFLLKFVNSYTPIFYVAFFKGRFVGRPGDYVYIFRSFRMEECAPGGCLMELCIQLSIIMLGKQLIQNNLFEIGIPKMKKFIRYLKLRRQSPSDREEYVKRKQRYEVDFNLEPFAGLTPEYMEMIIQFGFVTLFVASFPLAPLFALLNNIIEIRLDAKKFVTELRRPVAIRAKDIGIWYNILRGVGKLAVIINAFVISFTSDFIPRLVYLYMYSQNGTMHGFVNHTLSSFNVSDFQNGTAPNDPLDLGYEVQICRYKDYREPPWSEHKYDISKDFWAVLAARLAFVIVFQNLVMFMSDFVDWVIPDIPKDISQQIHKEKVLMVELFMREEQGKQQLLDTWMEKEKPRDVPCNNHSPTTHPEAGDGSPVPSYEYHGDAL
Test: Inside-out patch recording of 1PBC block, mutant G510P
Type: cell-based
Conditions: for remaining activity at 3 µM: 1PBC 3; for remaining activity at 3 µM / remaining activity at 10 µM / remaining activity at 30 µM / remaining activity at 100 µM: read-out: fraction of unblocked current; for remaining activity at 10 µM: 1PBC 10; for remaining activity at 30 µM: 1PBC 30; for remaining activity at 100 µM: 1PBC 100
Method: HEK293T cells (ATCC CRL-1573) were maintained in Dulbecco’s modified Eagle’s medium (DMEM; Sigma-Aldrich) supplemented with 10 U ml^−1 penicillin, 0.1 mg ml^−1 streptomycin (Sigma-Aldrich), 2 mM L-glutamine (Sigma-Aldrich), and 10% FBS (Sigma-Aldrich) in a humidified atmosphere containing 5% CO2 at 37 °C. HEK293S GnTI^− cells (ATCC CRL-3022) were maintained in HyClone HyCell TransFx-H medium (GE Healthcare) supplemented with 10 U ml^−1 penicillin, 0.1 mg ml^−1 streptomycin, 4 mM L-glutamine, 0.15% poloxamer 188 (Sigma-Aldrich), and 1% FBS in an atmosphere containing 5% CO2 at 185 rpm at 37 °C. The ac splice variant of mouse TMEM16A (UniProt ID: Q8BHY3), mouse TMEM16B (UniProt ID: Q8CFW1), or mouse TMEM16F (UniProt ID: Q6P9J9) bearing a 3C cleavage site, a Venus YFP, a Myc tag, and a Streptavidin-binding peptide (SBP) downstream of the open reading frame in a modified pcDNA3.1 vector (Invitrogen) were used as described previously[21],[31]. Mutations were introduced using a modified QuikChange method[58] and were verified by sequencing.
HEK293T cells were transfected with 3–4 μg DNA per 6 cm Petri dish using the calcium phosphate co-precipitation method and were used within 24–96 h after transfection. Recordings were performed on inside-out patches excised from HEK293T cells expressing the construct of interest. Patch pipettes were pulled from borosilicate glass capillaries (O.D. 1.5 mm, I.D. 0.86 mm, Sutter Instrument) and were fire-polished with a microforge (Narishige) before use. Pipette resistance was typically 3–8 MΩ when filled with the recording solutions detailed below. Seal resistance was typically 4 GΩ or higher. Voltage-clamp recordings were made using Axopatch 200B, Digidata 1550, and Clampex 10.7 (Molecular Devices). Analog signals were filtered with the in-built 4-pole Bessel filter at 10 kHz and were digitized at 20 kHz. Solution exchange was achieved using a gravity-fed system through a theta glass pipette mounted on an ultra-fast piezo-driven stepper (Siskiyou). […] All recordings were performed at 20 °C.
A symmetrical ionic condition was used throughout. Stock solution with Ca^2+-EGTA contained 150 mM NaCl, 5.99 mM Ca(OH)2, 5 mM EGTA, and 10 mM HEPES at pH 7.40. Stock solution with EGTA contained 150 mM NaCl, 5 mM EGTA, and 10 mM HEPES at pH 7.40. Free Ca^2+ concentrations were adjusted by mixing the stock solutions at the required ratios calculated using the WEBMAXC program (http://web.stanford.edu/~cpatton/webmaxcS.htm). Patch pipettes were filled with the stock solution with Ca^2+-EGTA, which has a free Ca^2+ concentration of 1 mM. 1PBC (ChemBridge) stock was reconstituted in anhydrous DMSO (Sigma-Aldrich) at 100 mM and stored at −20 °C. Working solutions with 1PBC were prepared by serial dilution. Unless otherwise stated, experiments were performed at a saturating Ca^2+ concentration as shown in Supplementary Table 1 and the primary data were corrected for current rundown as described previously[21],[25].
Concentration-response relations, obtained from the ratio of the I-V plots before and after the application of the blocker, were fitted to the Hill equation,1 I/Imax=1/1+IC50/[blocker]^h where I/Imax is the normalized current responses, IC50 defines the concentration at which inhibition is at its half-maximum, and h is the Hill coefficient.

IC50 (0 mV, 15 µM Ca2+): 65.7 µM | I/Imax_+80mV (3 μM 1PBC): 0.9738 | I/Imax_-80mV (3 μM 1PBC, -80 mV): 0.9802 | I/Imax_+80mV (10 μM 1PBC): 0.8477 | I/Imax_-80mV (10 μM 1PBC, -80 mV): 0.885 | I/Imax_+80mV (30 μM 1PBC): 0.6076 | I/Imax_-80mV (30 μM 1PBC, -80 mV): 0.6861 | I/Imax_+80mV (100 μM 1PBC): 0.3872 | I/Imax_-80mV (100 μM 1PBC, -80 mV): 0.4945 | remaining activity at 3 µM (0 mV): 95.8% | remaining activity at 3 µM (20 mV): 95.6% | remaining activity at 3 µM (40 mV): 96.9% | remaining activity at 3 µM (60 mV): 95.5% | remaining activity at 3 µM (80 mV): 97.4% | remaining activity at 3 µM (100 mV): 99.8% | remaining activity at 3 µM (120 mV): 99.8% | remaining activity at 3 µM (140 mV): 104% | remaining activity at 3 µM (-20 mV): 96% | remaining activity at 3 µM (-40 mV): 97.4% | remaining activity at 3 µM (-60 mV): 99% | remaining activity at 3 µM (-80 mV): 98% | remaining activity at 3 µM (-100 mV): 97.4% | remaining activity at 3 µM (-120 mV): 96.4% | remaining activity at 3 µM (-140 mV): 96% | remaining activity at 10 µM (0 mV): 86.9% | remaining activity at 10 µM (20 mV): 85.8% | remaining activity at 10 µM (40 mV): 85% | remaining activity at 10 µM (60 mV): 84.7% | remaining activity at 10 µM (80 mV): 84.8% | remaining activity at 10 µM (100 mV): 86% | remaining activity at 10 µM (120 mV): 86.5% | remaining activity at 10 µM (140 mV): 87.9% | remaining activity at 10 µM (-20 mV): 88% | remaining activity at 10 µM (-40 mV): 90.2% | remaining activity at 10 µM (-60 mV): 89.1% | remaining activity at 10 µM (-80 mV): 88.5% | remaining activity at 10 µM (-100 mV): 89.4% | remaining activity at 10 µM (-120 mV): 88.8% | remaining activity at 10 µM (-140 mV): 89% | remaining activity at 30 µM (0 mV): 64.5% | remaining activity at 30 µM (20 mV): 64.5% | remaining activity at 30 µM (40 mV): 63.6% | remaining activity at 30 µM (60 mV): 62.9% | remaining activity at 30 µM (80 mV): 60.8% | remaining activity at 30 µM (100 mV): 62.7% | remaining activity at 30 µM (120 mV): 62.8% | remaining activity at 30 µM (140 mV): 65.9% | remaining activity at 30 µM (-20 mV): 64.6% | remaining activity at 30 µM (-40 mV): 66.2% | remaining activity at 30 µM (-60 mV): 68.7% | remaining activity at 30 µM (-80 mV): 68.6% | remaining activity at 30 µM (-100 mV): 69.3% | remaining activity at 30 µM (-120 mV): 71.3% | remaining activity at 30 µM (-140 mV): 73.4% | remaining activity at 100 µM (0 mV): 43.2% | remaining activity at 100 µM (20 mV): 42.1% | remaining activity at 100 µM (40 mV): 40.7% | remaining activity at 100 µM (60 mV): 40.1% | remaining activity at 100 µM (80 mV): 38.7% | remaining activity at 100 µM (100 mV): 39.6% | remaining activity at 100 µM (120 mV): 40.6% | remaining activity at 100 µM (140 mV): 42.9% | remaining activity at 100 µM (-20 mV): 44.4% | remaining activity at 100 µM (-40 mV): 47.1% | remaining activity at 100 µM (-60 mV): 49.1% | remaining activity at 100 µM (-80 mV): 49.4% | remaining activity at 100 µM (-100 mV): 50.5% | remaining activity at 100 µM (-120 mV): 52.6% | remaining activity at 100 µM (-140 mV): 52.8% | IC50 (20 mV, 15 µM Ca2+): 63.2 µM | IC50 (40 mV, 15 µM Ca2+): 60.2 µM | IC50 (60 mV, 15 µM Ca2+): 58.2 µM | IC50 (80 mV, 15 µM Ca2+): 54.9 µM | IC50 (100 mV, 15 µM Ca2+): 59.3 µM | IC50 (120 mV, 15 µM Ca2+): 60.9 µM | IC50 (140 mV, 15 µM Ca2+): 69.5 µM | IC50 (-20 mV, 15 µM Ca2+): 68.2 µM | IC50 (-40 mV, 15 µM Ca2+): 76.6 µM | IC50 (-60 mV, 15 µM Ca2+): 83.4 µM | IC50 (-80 mV, 15 µM Ca2+): 83.4 µM | IC50 (-100 mV, 15 µM Ca2+): 87.4 µM | IC50 (-120 mV, 15 µM Ca2+): 94.4 µM | IC50 (-140 mV, 15 µM Ca2+): 98.6 µM | IC50 (G510P, V 0 mV): 65.7 µM | IC50 (G510P, V 20 mV): 63.2 µM | IC50 (G510P, V 40 mV): 60.2 µM | IC50 (G510P, V 60 mV): 58.2 µM | IC50 (G510P, V 80 mV): 54.9 µM | IC50 (G510P, V 100 mV): 59.3 µM | IC50 (G510P, V 120 mV): 60.9 µM | IC50 (G510P, V 140 mV): 69.5 µM | IC50 (G510P, V -20 mV): 68.2 µM | IC50 (G510P, V -40 mV): 76.6 µM | IC50 (G510P, V -60 mV): 83.4 µM | IC50 (G510P, V -80 mV): 83.4 µM | IC50 (G510P, V -100 mV): 87.4 µM | IC50 (G510P, V -120 mV): 94.4 µM | IC50 (G510P, V -140 mV): 98.6 µM
Compound: N#Cc1c(C(F)(F)F)cc(O)n2c1nc1ccccc12 [1PBC]
